Results published in patent publication US12070457B2, “Substituted pyridines, pyridazines, pyrimidines, and 1,2,3-triazines as bruton's tyrosine kinase inhibitors” (HUTCHISON MEDIPHARMA LIMITED, priority 2020, dated 2024).

Test: Stability test in liver microsomes (rat)
Type: in vitro ADME
Settings: 1 μM compound
Outline: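 Compound (1 μM final) incubated 30 min at 37 °C with male CD-1 mouse or male SD rat pooled liver microsomes (0.5 mg/mL) in 50 mM phosphate buffer with 3 mM MgCl2, 1 mM EDTA and NADPH-regenerating system. Quenched with acetonitrile containing internal standard; LC-MS/MS gives percent remaining relative to 0-min sample.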

## C[C@H]1CN(C2COC2)CCN1c1ccc(Nc2cc(-c3ccnc(-n4ccn5c6c(cc5c4=O)CC(C)(C)C6)c3CO)cn(C)c2=O)nc1 [Compound 19]
0.5 mg/mL liver microsomes, 30 minutes incubation
  stability in rat liver microsomes compared with reference GDC-0853: better than that of the reference GDC-0853
Rat liver microsomes, 30 min
  RLM, percentage of remaining compound after 30 minutes of incubation: 92.7%
